This assay deals with wild-type human cardiac sodium channel, hNav1.5 (Homo sapiens, UniProt Q14524). Nature of the assay: Late INa screening assay (late sodium current, PatchXpress whole cell patch clamp). The format is cell-based. The settings on record: compound at 10 μM; read-out: Late INa % blk. (In general: The patch-clamp technique gives a direct electrical read-out from membranes.)
Chain of wild-type human cardiac sodium channel, hNav1.5 (Q14524 whole entry): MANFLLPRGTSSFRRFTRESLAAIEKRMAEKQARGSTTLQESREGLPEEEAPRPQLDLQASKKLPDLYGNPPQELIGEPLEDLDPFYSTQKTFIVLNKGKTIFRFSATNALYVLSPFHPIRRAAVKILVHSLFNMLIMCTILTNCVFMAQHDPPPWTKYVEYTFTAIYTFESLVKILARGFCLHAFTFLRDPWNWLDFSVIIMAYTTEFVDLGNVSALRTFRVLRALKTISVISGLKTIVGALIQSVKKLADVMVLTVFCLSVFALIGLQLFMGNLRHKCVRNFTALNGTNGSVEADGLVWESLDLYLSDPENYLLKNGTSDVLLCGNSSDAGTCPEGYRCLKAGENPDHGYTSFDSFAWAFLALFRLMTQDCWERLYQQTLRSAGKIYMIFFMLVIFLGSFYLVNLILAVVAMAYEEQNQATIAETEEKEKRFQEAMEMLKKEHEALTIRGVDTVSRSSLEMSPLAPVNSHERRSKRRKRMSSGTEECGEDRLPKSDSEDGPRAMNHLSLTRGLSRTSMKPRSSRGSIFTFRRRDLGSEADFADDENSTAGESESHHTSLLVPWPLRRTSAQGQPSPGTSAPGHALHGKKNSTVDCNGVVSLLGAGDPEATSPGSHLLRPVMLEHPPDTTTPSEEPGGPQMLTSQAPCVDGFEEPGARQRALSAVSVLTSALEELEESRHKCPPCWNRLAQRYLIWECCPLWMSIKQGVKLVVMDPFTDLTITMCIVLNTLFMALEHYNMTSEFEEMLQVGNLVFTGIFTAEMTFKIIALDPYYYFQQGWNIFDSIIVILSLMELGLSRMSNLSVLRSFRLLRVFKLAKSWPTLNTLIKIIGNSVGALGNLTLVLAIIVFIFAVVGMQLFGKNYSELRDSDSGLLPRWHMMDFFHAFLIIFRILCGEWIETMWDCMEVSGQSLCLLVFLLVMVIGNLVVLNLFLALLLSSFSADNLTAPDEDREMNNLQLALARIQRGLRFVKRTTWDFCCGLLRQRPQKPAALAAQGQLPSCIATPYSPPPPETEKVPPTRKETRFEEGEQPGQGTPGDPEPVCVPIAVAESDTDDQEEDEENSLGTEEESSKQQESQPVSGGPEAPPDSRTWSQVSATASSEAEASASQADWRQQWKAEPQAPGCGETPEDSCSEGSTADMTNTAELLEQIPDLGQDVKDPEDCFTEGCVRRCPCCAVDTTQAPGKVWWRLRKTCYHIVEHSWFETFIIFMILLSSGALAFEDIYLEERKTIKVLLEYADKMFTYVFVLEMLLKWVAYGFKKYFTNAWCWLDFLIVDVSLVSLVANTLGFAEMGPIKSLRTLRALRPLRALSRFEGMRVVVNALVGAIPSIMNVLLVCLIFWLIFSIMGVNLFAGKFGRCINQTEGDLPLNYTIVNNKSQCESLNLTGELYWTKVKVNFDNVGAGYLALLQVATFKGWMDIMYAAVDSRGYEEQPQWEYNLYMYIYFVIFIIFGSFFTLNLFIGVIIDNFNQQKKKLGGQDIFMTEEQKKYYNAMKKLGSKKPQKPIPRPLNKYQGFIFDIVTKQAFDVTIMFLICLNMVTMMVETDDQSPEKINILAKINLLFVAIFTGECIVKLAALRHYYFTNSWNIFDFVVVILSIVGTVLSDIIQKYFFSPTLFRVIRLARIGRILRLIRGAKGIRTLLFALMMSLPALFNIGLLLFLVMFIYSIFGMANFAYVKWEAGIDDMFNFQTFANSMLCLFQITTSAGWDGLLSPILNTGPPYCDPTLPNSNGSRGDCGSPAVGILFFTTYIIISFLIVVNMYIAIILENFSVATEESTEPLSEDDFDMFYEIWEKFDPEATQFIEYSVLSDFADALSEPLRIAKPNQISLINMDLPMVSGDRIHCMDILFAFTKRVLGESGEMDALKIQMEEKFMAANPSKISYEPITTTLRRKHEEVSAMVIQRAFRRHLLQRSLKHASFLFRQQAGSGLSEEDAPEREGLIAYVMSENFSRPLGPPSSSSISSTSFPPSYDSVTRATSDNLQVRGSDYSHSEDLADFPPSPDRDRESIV

As for `CC1=C(C(=O)OC2Cc3ccccc3C2)C(c2cccc3ccccc23)n2nnnc2N1` (stereo not drawn) [PT-260, 2,3-dihydro-1H-inden-2-yl 5-methyl-7-(naphthalen-1-yl)-4,7-dihydrotetrazolo[1,5-a]pyrimidine-6-carboxylate], the inhibition at 10 µM was 74.8%.
`CC1=C(c2nnc(Cc3ccccc3)o2)C(c2cccc3ccccc23)n2nnnc2N1` (stereo not drawn) [PT-261, 2-benzyl-5-(5-methyl-7-(naphthalen-1-yl)-4,7-dihydrotetrazolo[1,5-a]pyrimidin-6-yl)-1,3,4-oxadiazole]: the inhibition at 10 µM was 59.4%.
`CC1=C(C(=O)OC(C)(C)Cc2ccccc2)C(c2ccccc2Br)c2cn[nH]c2N1` (stereo not drawn) [PT-263, 2-methyl-1-phenylpropan-2-yl 4-(2-bromophenyl)-6-methyl-4,7-dihydro-1H-pyrazolo[3,4-b]pyridine-5-carboxylate]: the inhibition at 10 µM was 38.8%.
With `CC1=C(C(=O)N2CCCCC2)C(c2cccc3ccccc23)C2=C(CCCC2=O)N1` (stereo not drawn) [PT-265, 2-methyl-4-(naphthalen-1-yl)-3-(piperidine-1-carbonyl)-4,6,7,8-tetrahydroquinolin-5(1H)-one] the figure was 18.6%.
As to `CC1=C(C(=O)NNC(=O)Cc2ccccc2)C(c2cccc3ccccc23)C2=C(CCCC2=O)N1` (stereo not drawn) [PT-266, 2-methyl-4-(naphthalen-1-yl)-5-oxo-N′-(2-phenylacetyl)-1,4,5,6,7,8-hexahydroquinoline-3-carbohydrazide], the inhibition at 10 µM amounted to 8.8%.
With `CC1=C(c2nnc(C)o2)C(c2cccc3ccccc23)n2nnnc2N1` (stereo not drawn) [PT-267, 2-methyl-5-(5-methyl-7-(naphthalen-1-yl)-4,7-dihydrotetrazolo[1,5-a]pyrimidin-6-yl)-1,3,4-oxadiazole] the figure was 17%; with `CCOC(=O)C1=C(C)Nc2nnnn2C1c1ccccc1OCc1cccc(C(=O)O)c1` (stereo not drawn) [PT-268, 3-((2-(6-(ethoxycarbonyl)-5-methyl-4,7-dihydrotetrazolo[1,5-a]pyrimidin-7-yl)phenoxy)methyl)benzoic acid], 9.5%; with `CCOC(=O)C1=C(C)Nc2nnnn2C1c1cccc(OCc2cccc(C(=O)O)c2)c1` (stereo not drawn) [PT-269, 3-((3-(6-(ethoxycarbonyl)-5-methyl-4,7-dihydrotetrazolo[1,5-a]pyrimidin-7-yl)phenoxy)methyl)benzoic acid], 12.3%.
In the case of `CC1=C(C(=O)OCc2cccc(-c3nnn[nH]3)c2)C(c2cccc3ccccc23)n2nnnc2N1` (stereo not drawn) [PT-271, 3-(1H-tetrazol-5-yl)benzyl 5-methyl-7-(naphthalen-1-yl)-4,7-dihydrotetrazolo[1,5-a]pyrimidine-6-carboxylate] it was 5.8%; in that of `CCOC(=O)C1=C(C)Nc2nnnn2C1c1ccccc1Oc1cccc(C(=O)O)c1` (stereo not drawn) [PT-272, 3-(2-(6-(ethoxycarbonyl)-5-methyl-4,7-dihydrotetrazolo[1,5-a]pyrimidin-7-yl)phenoxy)benzoic acid], -4.9%.
In the case of `COC(=O)C1=C(C)Nc2nnnn2C1c1sc2ccccc2c1-c1cccc(C(=O)O)c1` (stereo not drawn) [PT-273, 3-(2-(6-(methoxycarbonyl)-5-methyl-4,7-dihydrotetrazolo[1,5-a]pyrimidin-7-yl)benzo[b]thiophen-3-yl)benzoic acid], the inhibition at 10 µM was 14.1%.
In the case of `CCOC(=O)C1=C(C)Nc2nnnn2C1c1cccc(Oc2cccc(C(=O)O)c2)c1` (stereo not drawn) [PT-274, 3-(3-(6-(ethoxycarbonyl)-5-methyl-4,7-dihydrotetrazolo[1,5-a]pyrimidin-7-yl)phenoxy)benzoic acid] it was 16.8%; in that of `COC(=O)C1=C(C)Nc2nnnn2C1c1c(-c2cccc(C(=O)O)c2)sc2ccccc12` (stereo not drawn) [PT-275, 3-(3-(6-(methoxycarbonyl)-5-methyl-4,7-dihydrotetrazolo[1,5-a]pyrimidin-7-yl)benzo[b]thiophen-2-yl)benzoic acid], 9.4%; in that of `CC1=C(C(=O)OCc2ccccc2)C(c2ccsc2B(O)O)n2nnnc2N1` (stereo not drawn) [PT-277, 3-(6-(benzyloxycarbonyl)-5-methyl-4,7-dihydrotetrazolo[1,5-a]pyrimidin-7-yl)thiophen-2-ylboronic acid], 18%.
With `CC1=C(C(=O)OCc2cccc(C#N)c2)C(c2cccc3ccccc23)n2nnnc2N1` (stereo not drawn) [PT-278, 3-cyanobenzyl 5-methyl-7-(naphthalen-1-yl)-4,7-dihydrotetrazolo[1,5-a]pyrimidine-6-carboxylate] the figure was 63.9%; with `CC1=C(C(=O)OCc2ccc(Cn3cccn3)cc2)C(c2ccccc2OCc2ccccc2)n2nnnc2N1` (stereo not drawn) [PT-282, 4-((1H-pyrazol-1-yl)methyl)benzyl 7-(2-(benzyloxy)phenyl)-5-methyl-4,7-dihydrotetrazolo[1,5-a]pyrimidine-6-carboxylate], 30.2%.
In the case of `CC1=C(C(=O)OCc2ccc(Cn3cccn3)cc2)C(c2ccc(N(C)C)c3ccccc23)n2nnnc2N1` (stereo not drawn) [PT-283, 4-((1H-pyrazol-1-yl)methyl)benzyl 7-(4-(dimethylamino)naphthalen-1-yl)-5-methyl-4,7-dihydrotetrazolo[1,5-a]pyrimidine-6-carboxylate] it was 11.4%; in that of `COc1ccc(C2C(C(=O)OCc3ccc(Cn4cccn4)cc3)=C(C)Nc3nnnn32)c2ccccc12` (stereo not drawn) [PT-284, 4-((1H-pyrazol-1-yl)methyl)benzyl 7-(4-methoxynaphthalen-1-yl)-5-methyl-4,7-dihydrotetrazolo[1,5-a]pyrimidine-6-carboxylate], 49.5%; in that of `CCOC(=O)C1=C(C)Nc2nnnn2C1c1ccccc1OCc1ccc(C(=O)O)cc1` (stereo not drawn) [PT-285, 4-((2-(6-(ethoxycarbonyl)-5-methyl-4,7-dihydrotetrazolo[1,5-a]pyrimidin-7-yl)phenoxy)methyl)benzoic acid], -2.2%.
For `CCOC(=O)C1=C(C)Nc2nnnn2C1c1cccc(OCc2ccc(C(=O)O)cc2)c1` (stereo not drawn) [PT-286, 4-((3-(6-(ethoxycarbonyl)-5-methyl-4,7-dihydrotetrazolo[1,5-a]pyrimidin-7-yl)phenoxy)methyl)benzoic acid], the inhibition at 10 µM was found to be 8.8%.
In the case of `CC1=C(C(=O)OCc2ccc(-n3cccn3)cc2)C(c2cccc3ccccc23)n2nnnc2N1` (stereo not drawn) [PT-289, 4-(1H-pyrazol-1-yl)benzyl 5-methyl-7-(naphthalen-1-yl)-4,7-dihydrotetrazolo[1,5-a]pyrimidine-6-carboxylate] it was 3.3%.
In the case of `CC1=C(C(=O)OCCOc2ccc(C(=O)O)cc2)C(c2cccc3ccccc23)n2nnnc2N1` (stereo not drawn) [PT-290, 4-(2-(5-methyl-7-(naphthalen-1-yl)-4,7-dihydrotetrazolo[1,5-a]pyrimidine-6-carbonyloxy)ethoxy)benzoic acid], the inhibition at 10 µM is 14.4%.
In the case of `CCOC(=O)C1=C(C)Nc2nnnn2C1c1ccccc1Oc1ccc(C(=O)O)cc1` (stereo not drawn) [PT-291, 4-(2-(6-(ethoxycarbonyl)-5-methyl-4,7-dihydrotetrazolo[1,5-a]pyrimidin-7-yl)phenoxy)benzoic acid] it was 15.2%; in that of `CCOC(=O)C1=C(C)Nc2nnnn2C1c1sccc1-c1ccc(C(=O)O)cc1` (stereo not drawn) [PT-292, 4-(2-(6-(ethoxycarbonyl)-5-methyl-4,7-dihydrotetrazolo[1,5-a]pyrimidin-7-yl)thiophen-3-yl)benzoic acid], 18.7%.

Source of the values: patent US20090012103A1, “SUBSTITUTED HETEROCYCLIC COMPOUNDS” (priority 2007, published 2009).
